Source: publication PMC6201908, “Affinity, potency, efficacy, and selectivity of neurokinin A analogs at human recombinant NK2 and NK1 receptors” (PLoS ONE, 2018)
Where two headings read alike, the source gives them in different places. Non-standard residues stand in square brackets, D forms with d. Residues, ends and D or L forms follow the SMILES beside them. NMeL = CN[C@@H](CC(C)C)C(=O)O; Nle = CCCC[C@H](N)C(=O)O; βAla = NCCC(=O)O

What was measured:
[1] = target: T1, human recombinant NK2 receptors (Homo sapiens, UniProt P21452); test: Displacement of [^125I]-NKA binding to CHO-hNK2 membranes; details: for Ki: [^125I]-NKA binding pKi; for [^125I]-NKA binding Slope: Hill slope of displacement curve; for NK1/NK2 ratio of Ki values: NK1 [^3H]-Septide Ki / NK2 [^125I]-NKA Ki
T1 sequence (P21452 1-398): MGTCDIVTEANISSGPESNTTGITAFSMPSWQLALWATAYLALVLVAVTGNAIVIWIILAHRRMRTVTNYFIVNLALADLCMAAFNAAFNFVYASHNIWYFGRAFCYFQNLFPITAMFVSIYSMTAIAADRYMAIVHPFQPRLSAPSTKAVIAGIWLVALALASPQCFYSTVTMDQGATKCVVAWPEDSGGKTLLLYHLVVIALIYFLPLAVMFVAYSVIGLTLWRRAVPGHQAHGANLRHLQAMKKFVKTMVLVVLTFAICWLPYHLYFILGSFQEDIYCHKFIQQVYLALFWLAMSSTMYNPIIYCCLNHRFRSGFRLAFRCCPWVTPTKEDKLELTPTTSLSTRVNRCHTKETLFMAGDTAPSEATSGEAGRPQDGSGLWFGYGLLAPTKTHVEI

[2] = target: T2, human recombinant NK1 receptors (Homo sapiens, UniProt P25103); test: cell-based
T2 sequence (P25103 whole entry): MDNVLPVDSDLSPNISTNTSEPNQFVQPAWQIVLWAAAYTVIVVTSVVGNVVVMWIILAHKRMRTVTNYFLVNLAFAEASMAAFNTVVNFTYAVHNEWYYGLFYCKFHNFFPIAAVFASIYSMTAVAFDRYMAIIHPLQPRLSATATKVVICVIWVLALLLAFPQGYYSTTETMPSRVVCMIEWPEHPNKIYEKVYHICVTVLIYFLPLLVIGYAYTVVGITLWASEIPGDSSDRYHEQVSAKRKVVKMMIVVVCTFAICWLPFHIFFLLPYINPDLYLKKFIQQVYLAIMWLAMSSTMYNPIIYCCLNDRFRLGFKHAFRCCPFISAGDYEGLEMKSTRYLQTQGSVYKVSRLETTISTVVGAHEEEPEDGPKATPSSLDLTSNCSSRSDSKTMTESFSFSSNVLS
Experimental: (§1) Human recombinant NK2 and NK1 receptors were generated using stably transfected CHO cells (CHO-hNK2 and CHO-hNK1, respectively). Human NK2 or NK1 receptor expressing vectors from Genecopeia (Rockville, USA) were transfected in CHO cells using the standard FuGENE protocol and cells were selected using 450 μg/mL geneticin (G418). Clones expressing the receptors were selected by functional coupling to calcium using FLIPR and a single clone for each receptor subtype was selected for expansion and stable cell line generation. Cells were cultured in a humidified incubator with 5% CO2 in F12K medium containing 10% heat inactivated FBS and 450 μg/mL geneticin and passaged on reaching 80–90% confluence.
(§2) The agonist efficacy of the test compounds at recombinant human NK1 or NK2 receptors expressed in CHO cells was assessed by measuring the intracellular calcium response using the calcium-sensitive dye Fluo-4 AM (Eugene, OR, USA) and a Fluorometric Imaging Plate Reader (FLIPR, Molecular Devices, CA, USA). CHO-hNK1 and CHO-hNK2 cells were seeded into black walled clear-bottom 384-well plates at a density of 10,000 and 15,000 cells per well in 50 μL culture media, respectively, and grown overnight at 37°C in a humidified CO2-incubator. Cells were washed in washing buffer using an EMBLA 384 plate washer, leaving 20 μL of buffer per well after the final aspiration. Cells were then incubated at 37°C with the cytoplasmic Ca^2+ indicator Fluo-4 AM (final concentration 1 μM) in assay buffer (20 mM HEPES, 145 mM NaCl, 5 mM KCl, 5.5 mM glucose, 1 mM MgCl2 and 2 mM CaCl2, pH 7.4, 0.05% Pluronic F-127 and 0.1% BSA) containing 2.5 mM probenecid for 45–60 min (cell loading). Cells were then washed 3 times in washing buffer (20 mM HEPES, 145 mM NaCl, 5 mM KCl, 5.5 mM glucose, 1 mM MgCl2 and 2 mM CaCl2, pH 7.4 and 2.5 mM probenecid) using an EMBLA 384 plate washer, leaving 30 μL of buffer in each well after the last wash. Loaded cell plates were transferred to the FLIPR and calcium responses were monitored as described below. […] Concentration response curves of test compounds were generated in duplicate on at least two different occasions from the same stock solutions. Test solutions were prepared from 10 mM stock solutions in DMSO and 1 μL of each solution was stamped into V-bottom assay plates containing 49 μL assay buffer. The final concentration of DMSO was 0.5% in each well.

[3] = target: T1, human recombinant NK2 receptors; test: cell-based; details: for NK1/NK2 ratio of EC50s for intracellular calcium response: NK1 EC50 / NK2 EC50
Experimental: as §1, §2

[4] = target: T2, human recombinant NK1 receptors; test: Displacement of [^3H]-Septide binding to CHO-hNK1 membranes (septide site); details: for [^3H]-Septide binding pKi / [^3H]-Septide binding Slope: 5.0 nM [^3H]-Septide, 23°C, 1 h, mean ± SD; for [^3H]-Septide binding pKi: CHO-hNK1 membranes 20 μg/well; for [^3H]-Septide binding Slope: Hill slope of displacement curve
Experimental: Protein expression was induced by addition of 5 mM sodium butyrate to the culture medium. […] The cell suspension was collected, placed on ice and centrifuged for 5 min at 4°C and 1200 rpm in a Beckman GS6R centrifuge. After removal of the supernatant the cell pellet was washed and collected by re-suspension in PBS and centrifugation. The final pellet was weighed and frozen at -80°C until use. Frozen pellets were thawed and homogenized in 10 volumes (w/v) of membrane preparation buffer (50 mM HEPES pH 7.4, 1 mM EDTA, 50 μg/mL bacitracin and protease inhibitors) using a Polytron Ultraturrax (twice for 15 s per cycle). The homogenate was centrifuged for 20 min at 4°C and 18500 rpm in a SL-50T Sorvall rotor and the pellet was re-suspended in membrane preparation buffer and re-homogenized as before. After centrifugation for 20 min at 4°C and 18500 rpm, the pellets were re-suspended in 5 volumes of membrane preparation buffer and divided into aliquots before freezing at -80°C. Protein concentration was determined using BioRad Protein Assay (Milan, Italy) with a BSA standard curve. Stock solutions of test compounds (10 mM) were prepared in DMSO and stored at -20°C until use. […] The goodness of fit between One-Site and Two-Site models was examined using Akaike's Information Corrected Criteria (AICC; [23]) in SAS v9.4 (SAS Institute, Cary NC) in order to select the best model for the data generated. […] Data from displacement experiments were plotted as the log [inhibitor concentration] (X axis) versus response expressed as TB in cpm (Y axis).

[5] = Intracellular Ca^2+ pEC50, CHO-hNK2 cells, mean ± SD
[6] = NK2 EC50 intracellular calcium response, CHO-hNK2 cells
[7] = 0.1 nM [^125I]-NKA, CHO-hNK2 membranes 6 μg/well, 23°C, 3 h, mean ± SD
[8] = 0.1 nM [^125I]-NKA, 23°C, 3 h, mean ± SD
[9] = CHO-hNK1 cells, % of maximal response observed with substance P, mean ± SD
[10] = CHO-hNK2 cells, % of maximal response observed with NKA, mean ± SD
[11] = Intracellular Ca^2+ pEC50, CHO-hNK1 cells, mean ± SD
[12] = NK1 EC50 intracellular calcium response, CHO-hNK1 cells

Structure (SMILES)	Intracellular Ca^2+ % Max [2] [%]	EC50 [3, 5] [nM]	EC50 [3, 6] [nM]	EC50 [2, 11] [nM]	EC50 [2, 12] [nM]	Intracellular Ca^2+ % Max [3] [%]	also measured
CSCC[C@H](NC(=O)[C@H](CC(C)C)NC(=O)CNC(=O)[C@@H](NC(=O)[C@H](Cc1ccccc1)NC(=O)[C@H](CO)NC(=O)[C@@H](N)CC(=O)O)C(C)C)C(N)=O [NKA(4–10), Asp-Ser-Phe-Val-Gly-Leu-Met-NH2]	117.4 ± 12.8	1.02	1.02				Ki [1]: 2.34 nM
CCCC[C@H](NC(=O)[C@H](CC(C)C)N(C)C(=O)CNC(=O)[C@@H](NC(=O)[C@H](Cc1ccccc1)NC(=O)[C@H](CCCNC(=N)N)NC(=O)[C@@H](N)CC(=O)O)C(C)C)C(N)=O [[Arg^5,MeLeu^9,Nle^10]-NKA(4-10), Asp-Arg-Phe-Val-Gly-(NMe-Leu)-Nle-NH2] (H-DRFVG[NMeL][Nle]-NH2; N-terminus assumed)		0.0832					[^125I]-NKA binding pKi [1, 7]: 9.23 ± 0.19; [^125I]-NKA binding Slope [1, 8]: -0.86 ± 0.09; NK1/NK2 ratio of Ki values [1]: 561; Fold more selective for NK2 over septide site of NK1 receptor compared with NKA (binding) ([1]; from Ki ratios): more than 28 fold; Intracellular Ca^2+ % Max [2, 9]: 100.4 ± 1.5%; Intracellular Ca^2+ pEC50 ([2]; CHO-hNK1 cells, mean ± SD): 8.23 ± 0.32; Difference between pEC50 and pKi values ([2]; NK1 receptors, calcium response vs [^3H]-Septide binding): 56 fold; Intracellular Ca^2+ % Max [3, 10]: 89.0 ± 15.5%; NK1/NK2 ratio of EC50s for intracellular calcium response [3]: 70; [^3H]-Septide binding pKi [4]: 6.48 ± 0.05; [^3H]-Septide binding Slope [4]: -0.89 ± 0.13; Ki ([4]; displacement of [^3H]-Septide binding, read-out: NK1 [^3H]-Septide Ki): 331 nM
CSCC[C@H](NC(=O)[C@H](CC(C)C)N(C)C(=O)CNC(=O)[C@@H](NC(=O)[C@H](Cc1ccccc1)NC(=O)[C@H](CCCNC(=N)N)NC(=O)[C@@H](N)CC(=O)O)C(C)C)C(N)=O [[Arg^5,MeLeu^9]-NKA(4-10), Asp-Arg-Phe-Val-Gly-(NMe-Leu)-Met-NH2] (H-DRFVG[NMeL]M-NH2)		0.162					[^125I]-NKA binding Slope [1, 8]: -0.90 ± 0.07; NK1/NK2 ratio of Ki values [1]: 174; Ki [1, 7]: 0.126 nM; Intracellular Ca^2+ % Max [2, 9]: 99.9 ± 13.3%; Intracellular Ca^2+ pEC50 ([2]; CHO-hNK1 cells, mean ± SD): 9.52 ± 0.29; Intracellular Ca^2+ % Max [3, 10]: 111.5 ± 3.7%; NK1/NK2 ratio of EC50s for intracellular calcium response [3]: 2; [^3H]-Septide binding pKi [4]: 7.68 ± 0.16; [^3H]-Septide binding Slope [4]: -0.75 ± 0.03
CCCC[C@H](NC(=O)[C@H](CC(C)C)NC(=O)CNC(=O)[C@@H](NC(=O)[C@H](Cc1ccccc1)NC(=O)[C@H](CCCNC(=N)N)NC(=O)[C@@H](N)CC(=O)O)C(C)C)C(N)=O [[Arg^5,Nle^10]-NKA(4–10), Asp-Arg-Phe-Val-Gly-Leu-Nle-NH2] (H-DRFVGL[Nle]-NH2)		0.2	0.2	1.7	1.71		
CCCC[C@H](NC(=O)[C@H](CC(C)C)NC(=O)CCNC(=O)[C@@H](NC(=O)[C@H](Cc1ccccc1)NC(=O)[C@H](CCCNC(=N)N)NC(=O)[C@@H](N)CC(=O)O)C(C)C)C(N)=O [[Arg^5,β-Ala^8,Nle^10]-NKA(4–10), Asp-Arg-Phe-Val-[β-Ala]-Leu-Nle-NH2] (H-DRFV[βAla]L[Nle]-NH2)	104.9 ± 13.2	1.15	1.16	29.5	29.5	81.4 ± 1.2	
CSCC[C@H](NC(=O)[C@H](CC(C)C)NC(=O)CCNC(=O)[C@@H](NC(=O)[C@H](Cc1ccccc1)NC(=O)[C@H](CCCNC(=N)N)NC(=O)[C@@H](N)CC(=O)O)C(C)C)C(N)=O [[Arg^5,β-Ala^8]-NKA(4–10), Asp-Arg-Phe-Val-[β-Ala]-Leu-Met-NH2] (H-DRFV[βAla]LM-NH2)	101.5 ± 18.4	0.151	0.15	1.82	1.83	106.9 ± 8.9	
CSCC[C@H](NC(=O)[C@H](CC(C)C)NC(=O)CNC(=O)[C@@H](NC(=O)[C@H](Cc1ccccc1)NC(=O)[C@H](CCCNC(=N)N)NC(=O)[C@@H](N)CC(=O)O)C(C)C)C(N)=O [[Arg^5]-NKA(4–10), Asp-Arg-Phe-Val-Gly-Leu-Met-NH2] (H-DRFVGLM-NH2)		0.191	0.19	0.155	0.16		
CCCC[C@H](NC(=O)[C@H](CC(C)C)NC(=O)CNC(=O)[C@@H](NC(=O)[C@H](Cc1ccccc1)NC(=O)[C@H](CCCCN)NC(=O)[C@@H](N)CC(=O)O)C(C)C)C(N)=O [[Lys^5,Nle^10]-NKA(4–10), Asp-Lys-Phe-Val-Gly-Leu-Nle-NH2]		0.38	0.38	2.34	2.36		
CCCC[C@H](NC(=O)[C@H](CC(C)C)NC(=O)CCNC(=O)[C@@H](NC(=O)[C@H](Cc1ccccc1)NC(=O)[C@H](CCCCN)NC(=O)[C@@H](N)CC(=O)O)C(C)C)C(N)=O [[Lys^5,β-Ala^8,Nle^10]-NKA(4–10), Asp-Lys-Phe-Val-[β-Ala]-Leu-Nle-NH2] (H-DKFV[βAla]L[Nle]-NH2)	107.0 ± 14.0	3.02	3	77.6	78.2	83.1 ± 25.5	
CSCC[C@H](NC(=O)[C@H](CC(C)C)NC(=O)CCNC(=O)[C@@H](NC(=O)[C@H](Cc1ccccc1)NC(=O)[C@H](CCCCN)NC(=O)[C@@H](N)CC(=O)O)C(C)C)C(N)=O [[Lys^5,β-Ala^8]-NKA(4–10), Asp-Lys-Phe-Val-[β-Ala]-Leu-Met-NH2] (H-DKFV[βAla]LM-NH2)	105.8 ± 3.4	0.174	0.18	6.31	6.31	92.0 ± 3.8	
CSCC[C@H](NC(=O)[C@H](CC(C)C)NC(=O)CNC(=O)[C@@H](NC(=O)[C@H](Cc1ccccc1)NC(=O)[C@H](CCCCN)NC(=O)[C@@H](N)CC(=O)O)C(C)C)C(N)=O [[Lys^5]-NKA(4–10), Asp-Lys-Phe-Val-Gly-Leu-Met-NH2]		0.0891	0.09	0.417	0.41		
